According to ChEMBL document CHEMBL1201862, “PubChem BioAssay data set” (2004):
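Test compounds were applied to cells in 96-well plates for 48 hours at 5 doses. The concentration for 50% growth inhibition is given as GI50.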 The source made the active and inactive calls. Cut-off read from the data, not from the text of the source: active = GI50 up to about 1.1 µM and inactive = higher.

Legend:
Assay in all cases: DTP human tumour cell line panel, 48 h
SK-MEL-2 = system: SK-MEL-2
IGROV-1 = system: IGROV-1
HOP-92 = system: HOP-92
SNB-19 = system: SNB-19
SK-MEL-28 = system: SK-MEL-28
786-0 = system: 786-0
UACC-257 = system: UACC-257
LOX IMVI = system: LOX IMVI
SF-268 = system: SF-268
SK-MEL-5 = system: SK-MEL-5
SF-295 = system: SF-295
OVCAR-8 = system: OVCAR-8
OVCAR-5 = system: OVCAR-5
ACHN = system: ACHN
TK-10 = system: TK-10
SR = system: SR

Measured: GI50

CC1(c2cccc3ccccc23)OC(=O)c2ccccc21 (stereo not drawn)
inactive: SK-MEL-2 21.3 µM | IGROV-1 19.2 µM | HOP-92 13.5 µM | SNB-19 30.1 µM | SK-MEL-28 27 µM | 786-0 26.2 µM | UACC-257 22.2 µM | LOX IMVI 19.3 µM | SF-268 25.5 µM | SK-MEL-5 13.3 µM | SF-295 17.9 µM | OVCAR-8 28.1 µM | OVCAR-5 57.1 µM | ACHN 20.3 µM | TK-10 70.6 µM

C/C(=N\NC(N)=O)c1sc(-c2nc(C)c(/C(C)=N/NC(N)=O)s2)nc1C
inactive: SK-MEL-2 > 100 µM | IGROV-1 > 100 µM | HOP-92 > 100 µM | SNB-19 > 100 µM | SK-MEL-28 > 100 µM | 786-0 > 100 µM | UACC-257 > 100 µM | LOX IMVI > 100 µM | SF-268 > 100 µM | SK-MEL-5 > 100 µM | SF-295 > 100 µM | OVCAR-8 > 100 µM | OVCAR-5 > 100 µM | SR 22.6 µM | ACHN > 100 µM | TK-10 > 100 µM

O=C(O)CCC1(Br)CCCCC(Br)C1=O (stereo not drawn)
inactive: SK-MEL-2 77.4 µM | IGROV-1 > 100 µM | HOP-92 32.7 µM | SNB-19 > 100 µM | SK-MEL-28 > 100 µM | 786-0 > 100 µM | UACC-257 > 100 µM | SF-268 > 100 µM | SK-MEL-5 > 100 µM | SF-295 > 100 µM | OVCAR-8 > 100 µM | OVCAR-5 > 100 µM | ACHN > 100 µM | TK-10 > 100 µM

COc1ccccc1/C=C(\C#N)C(=O)c1ccccc1
inactive: SK-MEL-2 > 100 µM | IGROV-1 > 100 µM | HOP-92 > 100 µM | SNB-19 > 100 µM | SK-MEL-28 > 100 µM | 786-0 > 100 µM | UACC-257 > 100 µM | LOX IMVI > 100 µM | SF-268 > 100 µM | SK-MEL-5 > 100 µM | SF-295 > 100 µM | OVCAR-8 > 100 µM | OVCAR-5 > 100 µM | SR > 100 µM | ACHN > 100 µM

Cc1ccc(/C=N/C23CC4CC(CC(C4)C2)C3)cc1
inactive: SK-MEL-2 85.7 µM | IGROV-1 > 100 µM | SK-MEL-28 > 100 µM | 786-0 > 100 µM | UACC-257 > 100 µM | LOX IMVI > 100 µM | SF-268 > 100 µM | SK-MEL-5 84.1 µM | SF-295 > 100 µM | OVCAR-8 > 100 µM | OVCAR-5 > 100 µM | SR > 100 µM | ACHN > 100 µM | TK-10 > 100 µM

CC(C)(C)OC(=O)NCC(=O)OCc1ccccc1
inactive: SK-MEL-2 > 100 µM | IGROV-1 > 100 µM | HOP-92 > 100 µM | SNB-19 > 100 µM | SK-MEL-28 > 100 µM | 786-0 > 100 µM | UACC-257 > 100 µM | LOX IMVI > 100 µM | SF-268 > 100 µM | SF-295 > 100 µM | OVCAR-8 > 100 µM | OVCAR-5 > 100 µM | ACHN > 100 µM | TK-10 > 100 µM

c1nc2cscc2c2cscc12
inactive: SK-MEL-2 > 100 µM | IGROV-1 > 100 µM | HOP-92 14.7 µM | SNB-19 > 100 µM | SK-MEL-28 > 100 µM | 786-0 > 100 µM | UACC-257 > 100 µM | LOX IMVI > 100 µM | SF-268 > 100 µM | SF-295 > 100 µM | OVCAR-8 > 100 µM | OVCAR-5 > 100 µM | SR > 100 µM | ACHN > 100 µM | TK-10 > 100 µM

CCOC(=O)c1oc2c(OC)cc(Cl)c3c2c1CCC3
inactive: SK-MEL-2 > 100 µM | IGROV-1 38.3 µM | HOP-92 20.7 µM | SNB-19 31.5 µM | SK-MEL-28 58.3 µM | 786-0 30.8 µM | UACC-257 > 100 µM | LOX IMVI > 100 µM | SF-268 > 100 µM | SK-MEL-5 > 100 µM | SF-295 58.1 µM | OVCAR-8 35.4 µM | OVCAR-5 > 100 µM | SR > 100 µM | ACHN 30.3 µM | TK-10 27.4 µM

COc1cccc(NC(=O)CSc2nnc(-c3ccc(/N=C\c4ccc(Cl)cc4)cc3)o2)c1
inactive: SK-MEL-2 19 µM | SNB-19 19.5 µM | SK-MEL-28 18.3 µM | 786-0 24.5 µM | UACC-257 > 10 µM | LOX IMVI 20.2 µM | SF-268 19.4 µM | SK-MEL-5 18.6 µM | SF-295 20.2 µM | OVCAR-8 24.4 µM | SR 28.2 µM | ACHN 16.4 µM | TK-10 30.6 µM

COc1ccc2c(c1OCC(=O)O)C(=O)C(CCC(=O)O)CC2 (stereo not drawn)
inactive: IGROV-1 > 100 µM | SNB-19 > 100 µM | SK-MEL-28 > 100 µM | 786-0 > 100 µM | UACC-257 > 100 µM | LOX IMVI > 100 µM | SK-MEL-5 > 100 µM | SF-295 > 100 µM | OVCAR-8 > 100 µM | ACHN > 100 µM | TK-10 > 10 µM
